What was measured:
[1] = tested on: Isolate 1 (+/+) cell line; experiment: Callus growth test; format: cell-based, Nicotiana tabacum
Method: (§1) Callus growth tests were conducted substantially according to the following procedure. Approximately 50 mg callus tissue, grown on non-selective media, was spread over 7 cm diameter paper filter discs (Whatman No. 1), which were placed on the medium surface of petri dishes containing C1 agar media and varying concentrations of chlorsulfuron. The resulting cultures were incubated for 14 days at 25±1°, under fluorescent lamps programmed to provide a 16-hour photoperiod per day. At the conclusion of the incubation period, tissue was scraped from each filter disc and weighed. The final fresh weights were recorded, and means and standard errors of the means determined for all cases. The significance of differences between responses of individual cell lines to various concentrations of chlorsulfuron was determined at a probability level of 5% by a t-test for populations having different standard deviations, as described by Snedecor, et al., Statistical Methods (Iowa State University Press, Ames, Iowa, (1967), pp. 114-116).
(§2) The isolates tested were established from plants produced by self-fertilization of a S4/+ heterozygote produced by two successive backcrosses of a regenerated mutant plant to normal plants. In addition, growth responses were determined for cell cultures initiated from two individuals of the same genotype with respect to the S4 mutation. The genotypes of these cell lines were confirmed by progeny analyses of the plants from which they were derived. These precautions were intended to eliminate background variability which might otherwise obscure the effects of the resistance mutation.

[2] = tested on: Isolate 16 (S4/S4) cell line; experiment: Callus growth test; format: cell-based, Nicotiana tabacum
Method: as §1, §2

[3] = tested on: Isolate 23 (S4/+) cell line; experiment: Callus growth test; format: cell-based, Nicotiana tabacum; conditions: 14 days
Method: as §1, §2

[4] = tested on: Isolate 24 (S4/+) cell line; experiment: Callus growth test; format: cell-based, Nicotiana tabacum; conditions: 14 days
Method: as §1, §2

[5] = tested on: Isolate 30 (S4/S4) cell line; experiment: Callus growth test; format: cell-based, Nicotiana tabacum; conditions: 14 days
Method: as §1, §2

[6] = tested on: Isolate 7 (+/+) cell line; experiment: Callus growth test; format: cell-based, Nicotiana tabacum; conditions: 14 days
Method: as §1, §2

[7] = tested on: pea seedlings and root cultures; conditions: medium supplementation; cited from earlier work
[8] = tested on: Salmonella typhimurium; conditions: in the presence of valine; reversed by isoleucine; cited from earlier work
[9] = Nicotiana tabacum, 336 h, chlorsulfuron 1.0 ppb, 14 days, read-out: % of fresh weight at 0 ppb
[10] = Nicotiana tabacum, 336 h, chlorsulfuron 3.0 ppb, 14 days, read-out: % of fresh weight at 0 ppb
[11] = Nicotiana tabacum, 336 h, chlorsulfuron 0.3 ppb, read-out: % of fresh weight at 0 ppb
[12] = Nicotiana tabacum, 336 h, chlorsulfuron 1.0 ppb, read-out: % of fresh weight at 0 ppb
[13] = Nicotiana tabacum, 336 h, chlorsulfuron 3.0 ppb, read-out: % of fresh weight at 0 ppb
[14] = Nicotiana tabacum, 336 h, chlorsulfuron 10.0 ppb, read-out: % of fresh weight at 0 ppb
[15] = Nicotiana tabacum, 336 h, chlorsulfuron 30.0 ppb, read-out: % of fresh weight at 0 ppb

COc1nc(C)nc(NC(=O)NS(=O)(=O)c2ccccc2Cl)n1 [Chlorsulfuron, chlorsulfuron]
significance of growth inhibition (t-test, 5%) ([1]; 0.1 ppb chlorsulfuron): significantly inhibited
activity at 0.0001 µg/mL ([1]; Nicotiana tabacum, 336 h, chlorsulfuron 0.1 ppb, 14 days, read-out: % of fresh weight at 0 ppb): 76.7%
activity at 0.0003 µg/mL ([1]; Nicotiana tabacum, 336 h, chlorsulfuron 0.3 ppb, 14 days, read-out: % of fresh weight at 0 ppb): 40.4%
activity at 0.001 µg/mL [1, 9]: 3.6%
activity at 0.003 µg/mL [1, 10]: 1.8%
Fr. Wt. ([1]; chlorsulfuron 0.1 ppb, 14 days): 2287 ± 198 mg
Fr. Wt. ([1]; chlorsulfuron 0.3 ppb, 14 days): 1204 ± 107 mg
Fr. Wt. ([1]; chlorsulfuron 1.0 ppb, 14 days): 106 ± 9 mg
Fr. Wt. ([1]; chlorsulfuron 3.0 ppb, 14 days): 55 ± 3 mg
activity at 0.001 µg/mL [2, 9]: 95.8%
activity at 0.003 µg/mL [2, 10]: 90%
activity at 0.01 µg/mL ([2]; Nicotiana tabacum, 336 h, chlorsulfuron 10.0 ppb, 14 days, read-out: % of fresh weight at 0 ppb): 95.5%
activity at 0.03 µg/mL ([2]; Nicotiana tabacum, 336 h, chlorsulfuron 30.0 ppb, 14 days, read-out: % of fresh weight at 0 ppb): 79.9%
significance of growth inhibition (t-test, 5%) ([2]; both homozygous mutant lines (Isolates 16 and 30), concentrations below 30 ppb): neither homozygous mutant cell was significantly inhibited
Fr. Wt. ([2]; chlorsulfuron 0.1 ppb, 14 days): 3755 ± 259 mg
Fr. Wt. ([2]; chlorsulfuron 0.3 ppb, 14 days): 3778 ± 219 mg
Fr. Wt. ([2]; chlorsulfuron 1.0 ppb, 14 days): 3148 ± 196 mg
Fr. Wt. ([2]; chlorsulfuron 3.0 ppb, 14 days): 2958 ± 161 mg
Fr. Wt. ([2]; chlorsulfuron 10.0 ppb, 14 days): 3171 ± 260 mg
Fr. Wt. ([2]; chlorsulfuron 30.0 ppb, 14 days): 2625 ± 202 mg
increase of tolerance of cultured cells by S4 mutation ([2]; homozygous lines at 30 ppb versus Isolate 7 at 0.3 ppb): at least 100 fold
activity at 0.0003 µg/mL [3, 11]: 95.8%
activity at 0.001 µg/mL [3, 12]: 93.8%
activity at 0.003 µg/mL [3, 13]: 89.9%
activity at 0.01 µg/mL [3, 14]: 57.6%
activity at 0.03 µg/mL [3, 15]: 28.1%
Fr. Wt. ([3]; chlorsulfuron 0.1 ppb): 2803 ± 153 mg
Fr. Wt. ([3]; chlorsulfuron 0.3 ppb): 2559 ± 174 mg
Fr. Wt. ([3]; chlorsulfuron 1.0 ppb): 2505 ± 134 mg
Fr. Wt. ([3]; chlorsulfuron 3.0 ppb): 2401 ± 218 mg
Fr. Wt. ([3]; chlorsulfuron 10.0 ppb): 1537 ± 90 mg
Fr. Wt. ([3]; chlorsulfuron 30.0 ppb): 749 ± 54 mg
activity at 0.0003 µg/mL [4, 11]: 98.9%
activity at 0.001 µg/mL [4, 12]: 87.5%
activity at 0.003 µg/mL [4, 13]: 73%
activity at 0.01 µg/mL [4, 14]: 76.4%
activity at 0.03 µg/mL [4, 15]: 55.1%
Fr. Wt. ([4]; chlorsulfuron 0.1 ppb): 2895 ± 187 mg
Fr. Wt. ([4]; chlorsulfuron 0.3 ppb): 2842 ± 124 mg
Fr. Wt. ([4]; chlorsulfuron 1.0 ppb): 2515 ± 155 mg
Fr. Wt. ([4]; chlorsulfuron 3.0 ppb): 2099 ± 129 mg
Fr. Wt. ([4]; chlorsulfuron 10.0 ppb): 2196 ± 235 mg
Fr. Wt. ([4]; chlorsulfuron 30.0 ppb): 1585 ± 129 mg
activity at 0.001 µg/mL [5, 12]: 98.4%
activity at 0.03 µg/mL [5, 15]: 90.3%
Fr. Wt. ([5]; chlorsulfuron 0.1 ppb): 3235 ± 159 mg
Fr. Wt. ([5]; chlorsulfuron 0.3 ppb): 3157 ± 76 mg
Fr. Wt. ([5]; chlorsulfuron 1.0 ppb): 2707 ± 250 mg
Fr. Wt. ([5]; chlorsulfuron 3.0 ppb): 3287 ± 136 mg
Fr. Wt. ([5]; chlorsulfuron 10.0 ppb): 2975 ± 139 mg
Fr. Wt. ([5]; chlorsulfuron 30.0 ppb): 2486 ± 170 mg
activity at 0.0001 µg/mL ([6]; Nicotiana tabacum, 336 h, chlorsulfuron 0.1 ppb, read-out: % of fresh weight at 0 ppb): 93.1%
activity at 0.0003 µg/mL [6, 11]: 59.8%
activity at 0.001 µg/mL [6, 12]: 9.2%
activity at 0.003 µg/mL [6, 13]: 2.5%
Fr. Wt. ([6]; chlorsulfuron 0.1 ppb): 2170 ± 94 mg
Fr. Wt. ([6]; chlorsulfuron 0.3 ppb): 1395 ± 116 mg
Fr. Wt. ([6]; chlorsulfuron 1.0 ppb): 215 ± 33 mg
Fr. Wt. ([6]; chlorsulfuron 3.0 ppb): 58 ± 4 mg
reversal of growth inhibition [7]: prevented by supplementation of the medium with isoleucine and valine

COC(=O)c1ccccc1S(=O)(=O)NC(=O)Nc1nc(C)cc(C)n1 [Sulfometuron-methyl, sulfometuron-methyl]
growth effect [8]: inhibits growth

From patent US4774381A, “Herbicide resistant tobacco” (E. I. Du Pont de Nemours and Company, priority 1985, dated 1988)
